Patent publication US11180504B2 (ORCHID PHARMA LTD., priority 2016, dated 2021)
Converted amounts (≈) assume the structure as drawn.

Experiments:
[1] = system: methicillin-sensitive Staphylococcus aureus; assay: MIC by broth micro-dilution (CLSI), methicillin-sensitive S. aureus; type: cell-based; conditions: Staphylococcus aureus, ATCC 29213 / MSSA, MSSA S. aureus ATCC29213; read-out: MIC
[2] = system: carbapenem sensitive Pseudomonas aeruginosa; assay: MIC by broth micro-dilution (CLSI), carbapenem sensitive P. aeruginosa; type: cell-based; conditions: Pseudomonas aeruginosa, ATCC27853, Meropenem susceptible P. aeruginosa ATCC27853; read-out: MIC
[3] = system: carbapenem sensitive Escherichia coli; assay: MIC by broth micro-dilution (CLSI), carbapenem sensitive E. coli; type: cell-based; conditions: Escherichia coli, ATCC25922, ESBL −ve E. coli ATCC25922; read-out: MIC
[4] = system: carbapenemase producing K. pneumoniae; assay: MIC by broth micro-dilution (CLSI), carbapenemase producing K. pneumoniae; type: cell-based, Klebsiella pneumoniae; conditions: Klebsiella pneumoniae, ATCCBAA1705, KPC-2 K. pneumoniae ATCC BAA-1705; read-out: MIC
[5] = system: extended spectrum β lactamase (ESBL) SHV18 producing Klebsiella pneumoniae; assay: MIC by broth micro-dilution (CLSI), ESBL SHV18 producing K. pneumoniae; type: cell-based; conditions: Klebsiella pneumoniae, ATCC700603, 22 h, ESBL +ve (SHV-18) K. pneumoniae ATCC700603; read-out: MIC

| SMILES | MIC [1] [µg/mL] | MIC [2] [µg/mL] | MIC [3] [µg/mL] | MIC [4] [µg/mL] | MIC [5] [µg/mL] |
| --- | --- | --- | --- | --- | --- |
| C[C@@H](NC(=O)[C@H]1CCCO1)[C@H]1C(=O)N2C(C(=O)O)=C(S[C@@H]3CN[C@H](C(=O)N(C)C)C3)[C@H](C)[C@H]12 [Example 58] | 32 (≈ 66.6 µM) | > 128 | 16 (≈ 33.3 µM) | > 128 | > 128 |
| CNCC(=O)N1CCN(C(=O)[C@@H]2C[C@H](SC3=C(C(=O)O)N4C(=O)[C@H]([C@@H](C)NC(=O)C(F)F)[C@H]4[C@H]3C)CN2)CC1 [Example 158] | 2 (≈ 3.49 µM) | 8 (≈ 14 µM) | 1 (≈ 1.75 µM) | 4 (≈ 6.99 µM) | 4 (≈ 6.99 µM) |
| C[C@H]([C@H]1C(=O)N2C(C(=O)O)=C(SC3CN[C@H](C(=O)N(C)C)C3)[C@H](C)[C@H]12)n1cc(CN)nn1 (stereo partly shown) [Example 177] | 8 (≈ 17.3 µM) | 32 (≈ 69 µM) | 2 (≈ 4.31 µM) | 2 (≈ 4.31 µM) | 2 (≈ 4.31 µM) |
| C[C@@H](NC(=O)C(F)F)[C@H]1C(=O)N2C(C(=O)O)=C(S[C@@H]3CN[C@H](C(=O)N4C[C@@H](N)C[C@H]4CO)C3)[C@H](C)[C@H]12 [Example 186] | 4 (≈ 7.52 µM) | 8 (≈ 15 µM) | 0.5 (≈ 0.941 µM) | 4 (≈ 7.52 µM) | 4 (≈ 7.52 µM) |
| C[C@@H](NC(=O)CNS(C)(=O)=O)[C@H]1C(=O)N2C(C(=O)O)=C(S[C@@H]3CN[C@H](C(=O)N(C)C)C3)[C@H](C)[C@H]12 [Example 70] | 16 (≈ 30.9 µM) | > 128 | 4 (≈ 7.73 µM) | 16 (≈ 30.9 µM) | 8 (≈ 15.5 µM) |
| C[C@@H](NC(=O)C(F)F)[C@H]1C(=O)N2C(C(=O)O)=C(S[C@@H]3CN[C@H](C(=O)N(C)[C@H]4CCNC4)C3)[C@H](C)[C@H]12 [Example 134] | 2 (≈ 3.88 µM) | 16 (≈ 31 µM) | 1 (≈ 1.94 µM) | 4 (≈ 7.76 µM) | 4 (≈ 7.76 µM) |
| C[C@@H](NC(=O)C(F)F)[C@H]1C(=O)N2C(C(=O)O)=C(S[C@@H]3CN[C@H](CN4CCOCC4)C3)[C@H](C)[C@H]12 [Example 90] | 1 (≈ 2.05 µM) | 128 (≈ 262 µM) | 1 (≈ 2.05 µM) | 4 (≈ 8.19 µM) | 32 (≈ 65.5 µM) |
| C[C@@H](NC(=O)C(F)F)[C@H]1C(=O)N2C(C(=O)O)=C(S[C@@H]3CN[C@H](CNC(=O)N(C)C)C3)[C@H](C)[C@H]12 [Example 89] | 0.5 (≈ 1.02 µM) | 128 (≈ 261 µM) | 0.5 (≈ 1.02 µM) | 4 (≈ 8.17 µM) | 8 (≈ 16.3 µM) |
| CNCC(=O)N[C@H](C)[C@H]1C(=O)N2C(C(=O)O)=C(S[C@@H]3CN[C@H](C(=O)N4CC[C@H](N)C4)C3)[C@H](C)[C@H]12 [Example 129] | 32 (≈ 64.7 µM) | 8 (≈ 16.2 µM) | 4 (≈ 8.09 µM) | 8 (≈ 16.2 µM) | 32 (≈ 64.7 µM) |
| CNCC(=O)N[C@H](C)[C@H]1C(=O)N2C(C(=O)O)=C(S[C@@H]3CN[C@H](C(=O)N4CCC(N)CC4)C3)[C@H](C)[C@H]12 [Example 190] | 64 (≈ 126 µM) | 4 (≈ 7.86 µM) | 2 (≈ 3.93 µM) | 4 (≈ 7.86 µM) | 16 (≈ 31.5 µM) |
| C[C@@H](NC(=O)C(F)F)[C@H]1C(=O)N2C(C(=O)O)=C(S[C@@H]3CN[C@H](C(=O)N4CC[C@H](NC(=O)C(F)(F)CN)C4)C3)[C@H](C)[C@H]12 [Example 147] | 2 (≈ 3.29 µM) | 64 to 128 (≈ 105 to 210 µM) | 1 (≈ 1.64 µM) | 4 to 8 (≈ 6.57 to 13.1 µM) | 2 (≈ 3.29 µM) |
| CNCCN(C)C(=O)[C@@H]1C[C@H](SC2=C(C(=O)O)N3C(=O)[C@H]([C@@H](C)NC(=O)C(F)F)[C@H]3[C@H]2C)CN1 [Example 163] | 1 (≈ 1.99 µM) | 8 (≈ 15.9 µM) | 1 (≈ 1.99 µM) | 4 (≈ 7.94 µM) | 4 (≈ 7.94 µM) |
| C[C@@H](NC(=O)C(F)F)[C@H]1C(=O)N2C(C(=O)O)=C(S[C@@H]3CN[C@H](C(=O)NCCC(=O)NOCc4ccccc4)C3)[C@H](C)[C@H]12 [Example 111] | 4 (≈ 6.56 µM) | > 128 | 1 (≈ 1.64 µM) | 16 (≈ 26.2 µM) | 16 (≈ 26.2 µM) |
| C[C@@H](NC(=O)C(F)F)[C@H]1C(=O)N2C(C(=O)O)=C(S[C@@H]3CN[C@H](C(=O)N4CCS(=O)(=O)CC4)C3)[C@H](C)[C@H]12 [Example 49] | 2 (≈ 3.63 µM) | > 128 | 1 (≈ 1.82 µM) | > 128 | 2 (≈ 3.63 µM) |
| C[C@@H](NC(=O)C(F)F)[C@H]1C(=O)N2C(C(=O)O)=C(S[C@@H]3CN[C@H](C(=O)N4C[C@@H](N)C[C@H]4CNS(N)(=O)=O)C3)[C@H](C)[C@H]12 [Example 212] | 1 (≈ 1.64 µM) | 8 (≈ 13.1 µM) | 0.5 (≈ 0.82 µM) | 4 (≈ 6.56 µM) | 2 (≈ 3.28 µM) |
| C[C@@H](NC(=O)C(F)(F)CN)[C@H]1C(=O)N2C(C(=O)O)=C(S[C@@H]3CN[C@H](C(=O)N(C)C)C3)[C@H](C)[C@H]12 [Example 138] | 32 (≈ 65.4 µM) | > 128 | 4 (≈ 8.17 µM) | 64 (≈ 131 µM) | 32 (≈ 65.4 µM) |
| COC(=O)C(=O)N[C@H](C)[C@H]1C(=O)N2C(C(=O)O)=C(S[C@@H]3CN[C@H](C(=O)N(C)C)C3)[C@H](C)[C@H]12 [Example 74] | 8 to 16 (≈ 17.1 to 34.1 µM) | 8 (≈ 17.1 µM) | 1 to 2 (≈ 2.13 to 4.27 µM) | 4 (≈ 8.54 µM) | 1 to 2 (≈ 2.13 to 4.27 µM) |
| C[C@@H](NS(=O)(=O)C(F)(F)F)[C@H]1C(=O)N2C(C(=O)O)=C(S[C@@H]3CN[C@H](C(=O)N(C)C)C3)[C@H](C)[C@H]12 [Example 13] | 4 (≈ 7.77 µM) | 64 (≈ 124 µM) | 1 (≈ 1.94 µM) | 4 (≈ 7.77 µM) | 8 (≈ 15.5 µM) |
| COc1ccc(S(=O)(=O)N[C@H](C)[C@H]2C(=O)N3C(C(=O)O)=C(S[C@@H]4CN[C@H](C(=O)N(C)C)C4)[C@H](C)C23)cc1OC (stereo partly shown) [Example 9] | 8 (≈ 13.7 µM) | > 128 | 128 (≈ 220 µM) | > 128 | > 128 |
| C[C@@H](NS(=O)(=O)c1ccccc1)[C@H]1C(=O)N2C(C(=O)O)=C(S[C@@H]3CN[C@H](C(=O)N(C)C)C3)[C@H](C)[C@H]12 [Example 11] | 8 (≈ 15.3 µM) | > 128 | 4 (≈ 7.65 µM) | 32 (≈ 61.2 µM) | 64 (≈ 122 µM) |
| C[C@@H](NC(=O)CC(F)(F)F)[C@H]1C(=O)N2C(C(=O)O)=C(S[C@@H]3CN[C@H](C(=O)N(C)C)C3)[C@H](C)[C@H]12 [Example 40] | 4 (≈ 8.12 µM) | > 128 | 1 (≈ 2.03 µM) | 4 to 8 (≈ 8.12 to 16.2 µM) | 8 (≈ 16.2 µM) |
| C[C@@H](NC(=O)C(F)F)[C@H]1C(=O)N2C(C(=O)O)=C(SCc3ccncc3)[C@H](C)[C@H]12 [Example 97] | 1 (≈ 2.43 µM) | > 128 | 8 (≈ 19.4 µM) | 64 (≈ 156 µM) | 128 (≈ 311 µM) |
| CNCC(=O)N[C@H](C)[C@H]1C(=O)N2C(C(=O)O)=C(S[C@@H]3CN[C@H](C(=O)N4CC(N)C4)C3)[C@H](C)[C@H]12 [Example 189] | > 128 | 16 (≈ 33.3 µM) | 4 (≈ 8.32 µM) | 8 (≈ 16.6 µM) | 32 (≈ 66.6 µM) |
| CC(C)C[C@H](O)C(=O)N[C@H](C)[C@H]1C(=O)N2C(C(=O)O)=C(S[C@@H]3CN[C@H](C(=O)N(C)C)C3)[C@H](C)[C@H]12 [Example 67] | 4 (≈ 8.05 µM) | > 128 | 8 (≈ 16.1 µM) | > 128 | > 128 |
| C[C@@H](NC(=O)OCC(F)(F)F)[C@H]1C(=O)N2C(C(=O)O)=C(S[C@@H]3CN[C@H](C(=O)N(C)C)C3)[C@H](C)[C@H]12 [Example 47] | 2 (≈ 3.93 µM) | > 128 | 2 (≈ 3.93 µM) | 64 (≈ 126 µM) | 128 (≈ 252 µM) |
| C[C@@H](NC(=O)C(F)F)[C@H]1C(=O)N2C(C(=O)O)=C(S[C@@H]3CN[C@H](C(=O)N4CC[C@H](NS(C)(=O)=O)C4)C3)[C@H](C)[C@H]12 [Example 110] | 4 (≈ 6.9 µM) | 32 (≈ 55.2 µM) | 0.5 (≈ 0.863 µM) | 4 (≈ 6.9 µM) | 2 (≈ 3.45 µM) |
